Test results reported in US20160151369A1, “SUBSTITUTED 3-PHENYLPROPYLAMINE DERIVATIVES FOR THE TREATMENT OF OPHTHALMIC DISEASES AND DISORDERS” (ACUCELA INC., priority 2013, published 2016).
Like-named read-outs stand apart in the source and are kept apart here.

Key:
[1] = test system: retinal isomerase activity (regeneration of 11-cis-retinal); test: Comparative in vivo murine isomerase assay, dose response (compound A vs compound D); design: species or system BALB/c mice
Description: (§1) All test compounds were stored at room temperature, dessicated.
On the day prior to dose administration compound A and compound D were weighed into new empty glass vials. The compounds were dissolved in di-water at the concentration of 0.833 mg/mL compound A and 0.892 mg/mL compound D, serially diluted into various concentrations, and stored overnight at 4 OC.
56 Male BALB/c mice (Charles River Laboratories) were used for this study. The mice were approximately 8 weeks at the initiation of dosing with an average body weight of 24 grams.
The day prior to dose administration 56 BALB/c mice were placed into a dark room and dark adapted for a minimum of 12 hours prior to dose administration. The mice were maintained in the dark for the duration of the study.
Each animal was removed from its cage and dosed accordingly to the study design in Table 4 (see below). Each animal was administered 0.1 mL of the appropriate compound or vehicle via oral gavage using a 1 mL syringe fitted with a 23 gauge oral gavage needle. Two hours following dose administration, animals were removed from the dark and exposed to 5000 Lux white light for 10 minutes to photobleach their eyes.
Following the completion of the photobleach the animals were returned to the dark for 2 hours to allow for the regeneration of 11-cis-retinal in the eyes. Two hours after photobleaching each animal was euthanized with carbon dioxide followed by cervical dislocation, in the dark under red light. The light control group was euthanized immediately following photobleaching. Immediately following the cervical dislocation both eyes of each animal were removed and transferred into separate tubes, flash frozen in liquid nitrogen and stored in the dark at −80° C. until processing and analysis.
(§2) All sample processing procedures were performed in the dark under red light.
Extracted samples were analyzed using an Agilent 1100 HPLC system according to the procedure outlined in Table 6 (see below)
(§3) HPLC analysis of the eyes measures the peak area units of the 110 cis-Ral-Oxime_syn. Signal.
(§4) Data analysis % inhibition (drug vs. recovery control). % control (drug vs. light control), and One-way ANOVA (followed by Tukey's Multiple Comparison) were performed using peak area units and performed by Prism software. Data are represented as mean and standard deviation.

[2] = test system: regeneration of 11-cis-retinal (isomerase); test: Single dose time course in the in vivo isomerase assay at 0.3 mg/kg (compound A vs compound D); settings: BALB/c mice, single oral dose 0.3 mg/kg; for inhibition at 0.3 mg/kg: Mus musculus, read-out: Percent Inhibition, 0.3 mg/kg, Avg. % Inhibition
Description: as §1
On the day prior to dose administration 3-amino-1-(3-((tetrahydro-2H-pyran-4-yl)methoxy)phenyl)propan-1-ol (compound A) and 3-amino-1-(3-((tetrahydro-2H-pyran- 2-yl)methoxy)phenyl)propan-1-ol (compound D) were weighed into new empty glass vials. The compounds were dissolved in di-water at the concentration of 0.068 mg/mL and stored overnight at 4° C.
52 Male BALB/c mice (Charles River Laboratories) were used for this study. The mice were approximately 8 weeks at the initiation of dosing with an average body weight of 23 grams.
The day prior to dose administration 52 BALB/c mice were placed into a dark room and dark adapted for a minimum of 12 hours prior to dose administration. The mice were maintained in the dark for the duration of the study.
Each animal was removed from its cage and dosed accordingly to the study design in Table 10 (see below). Each animal was administered 0.1 mL of the appropriate test article or vehicle orally using a 1 mL syringe fitted with a 23 gauge oral gavage needle. At 2, 4, 6, 8, 16 or 24 hours following dose administration, animals were removed from the dark and exposed to 5000 Lux white light for 10 minutes to photobleach their eyes. Following the completion of the photobleach the animals were returned to the dark for 2 hours to allow for the regeneration of 11-cis-retinal in the eyes. Two hours after photobleaching each animal was euthanized with carbon dioxide followed by cervical dislocation, in the dark under red light. The light control group was euthanized immediately following photobleaching. Immediately following the cervical dislocation both eyes of each animal were removed and transferred into separate tubes, flash frozen in liquid nitrogen and stored in the dark at −80° C. until processing and analysis.
as §2
Extracted samples were analyzed using an Agilent 1100 HPLC system according to the procedure outlined in Table 12 (see below)
as §3, §4

[3] = test system: isomerase (recovery of 11-cis-retinal after bleaching); test: In vivo murine isomerase assay (Table 3); settings: Mus musculus, po, mice
Description: The capability of compounds described herein to inhibit isomerase was determined by an in vivo murine isomerase assay. […] The recovery of 11-cis-retinal after bleaching can be used to estimate the activity of isomerase in vivo. Delayed recovery, as represented by lower 11-cis-retinal oxime levels, indicates inhibition of isomerization reaction.
Mice were gavaged with the test compound. […] The mice were allowed to recover 2 hours in the dark. The animals were then sacrificed by carbon dioxide inhalation. Retinoids were extracted from the eye and the regeneration of 11-cis-retinal was assessed at various time intervals.
After the mice were sacrificed, the eyes were immediately removed and placed in liquid nitrogen for storage.
The eyes were placed in 500 μL of bis-tris propane buffer (10 mM, pH˜7.3) and 20 μL of 0.8M hydroxile amine (pH˜7.3). The eyes were cut up into small pieces with small iris scissors and then thoroughly homogenized at 30000 rpm with a mechanical homogenizer (Polytron PT 1300 D) in the tube until no visible tissue remained. 500 μL of methanol and 500 μL of heptane were added to each tube. The tubes were attached to a vortexer so that the contents were mixed thoroughly for 15 minutes in room temperature. The organic phase was separated from the aqueous phase by centrifugation for 10 min at 13K rpm, 4° C. 240 μL of the solution from the top layer (organic phase) was removed and transferred to clean 300 μl glass inserts in HPLC vials using glass pipette and the vials were crimped shut tightly.
The samples were analyzed on an Agilent 1100 HPLC system with normal phase column: SILICA (Beckman Coutlier, dp 5 μm, 4.6 mM×250 mM). […] Loading volume for each sample was 100 μl; detection wavelength was 360 nm. The area under the curve for 11-cis retinal oxime was calculated by Agilent Chemstation software and was recorded manually. Data processing was performed using Prizm software.
Positive control mice (no compound administered) were sacrificed fully dark-adapted and the eye retinoids analyzed. Light (bleached) control mice (no compound administered) were sacrificed and retinoids isolated and analyzed immediately after light treatment.
A time course study was performed to determine the isomerase inhibitory activity of the test compound. […] The animals were then “photo-bleached” (5000 Lux white light for 10 minutes) at 2, 4, 8, 16 and 24 hours after dosing, and returned to darkness to allow recovery of the 11-cis-retinal content of the eyes. Mice were sacrificed 2 hours after bleaching, eyes were enucleated, and retinoid content is analyzed by HPLC.
Recovery control mice (vehicle-only treated) were light-treated and left to recover for 2 hours in the dark before sacrifice and analysis. Light control mice (vehicle only treated) were sacrificed for analysis immediately after photo-bleaching.
An in vivo dose response isomerase inhibition study was performed with test compound. […] Recovery and retinoid analysis were performed as described above. Dark control mice were vehicle-only treated, sacrificed fully dark adapted without light treatment, and analyzed. Recovery control mice and light control mice were included in the study as per the initial phase.

## NCC[C@@H](O)c1cccc(OCC2CCOCC2)c1 [Example 1]
[1]; BALB/c mice, single oral dose, 2 h, dose response experiment
  dose at which 11-cis-retinal recovery was inhibited by 50% (called IC50): 0.17 mg/kg
[1]; Mus musculus, po, 2 h, BALB/c mice, single oral dose 0.03 mg/kg, bleach 2 h after dose, drug vs. recovery control, read-out: Percent Inhibition at 2 Hours, Avg. % Inhibition
  inhibition at 0.03 mg/kg: -44.1%
[1]; Mus musculus, po, 2 h, BALB/c mice, single oral dose 0.1 mg/kg, bleach 2 h after dose, drug vs. recovery control, read-out: Percent Inhibition at 2 Hours, Avg. % Inhibition
  inhibition at 0.1 mg/kg: -9.8%
[1]; Mus musculus, po, 2 h, BALB/c mice, single oral dose 0.3 mg/kg, bleach 2 h after dose, drug vs. recovery control, read-out: Percent Inhibition at 2 Hours, Avg. % Inhibition
  inhibition at 0.3 mg/kg: > 90%
[1]; Mus musculus, po, 2 h, BALB/c mice, single oral dose 0.5 mg/kg, bleach 2 h after dose, drug vs. recovery control, read-out: Percent Inhibition at 2 Hours, Avg. % Inhibition
  inhibition at 0.5 mg/kg: ~100%
[1]; Mus musculus, po, 2 h, BALB/c mice, single oral dose 1 mg/kg, bleach 2 h after dose, drug vs. recovery control, read-out: Percent Inhibition at 2 Hours, Avg. % Inhibition
  inhibition at 1 mg/kg: 100%
[1]; Mus musculus, po, 2 h, BALB/c mice, single oral dose 3 mg/kg, bleach 2 h after dose, drug vs. recovery control, read-out: Percent Inhibition at 2 Hours, Avg. % Inhibition
  inhibition at 3 mg/kg: 105%
[1]; Mus musculus, BALB/c mice, single oral dose 0.03 mg/kg, bleach 2 h after dose, read-out: Percent control at 2 Hours (Avg. % Inhibition)
  activity at 0.03 mg/kg: 144%
[1]; Mus musculus, BALB/c mice, single oral dose 0.1 mg/kg, bleach 2 h after dose, read-out: Percent control at 2 Hours (Avg. % Inhibition)
  activity at 0.1 mg/kg: 110%
[1]; Mus musculus, BALB/c mice, single oral dose 0.3 mg/kg, bleach 2 h after dose, read-out: Percent control at 2 Hours (Avg. % Inhibition)
  activity at 0.3 mg/kg: 7.6%
[1]; Mus musculus, BALB/c mice, single oral dose 0.5 mg/kg, bleach 2 h after dose, read-out: Percent control at 2 Hours (Avg. % Inhibition)
  activity at 0.5 mg/kg: 0.7%
[1]; Mus musculus, BALB/c mice, single oral dose 1 mg/kg, bleach 2 h after dose, read-out: Percent control at 2 Hours (Avg. % Inhibition)
  activity at 1 mg/kg: -0.4%
[1]; Mus musculus, BALB/c mice, single oral dose 3 mg/kg, bleach 2 h after dose, read-out: Percent control at 2 Hours (Avg. % Inhibition)
  activity at 3 mg/kg: -5.2%
[1]; dose response experiment, 2 h
  dose showing nearly 100% inhibition: 0.5 mg/kg
  times more active than compound D, by dose for nearly 100% inhibition: approximately 6 ×
  times more active than compound D, by inhibition at a dose of 0.3 mg/kg: greater than 10 ×
[2]; Time Point 2 Hours
  Percent Control, 0.3 mg/kg (average): 2.0%
  inhibition at 0.3 mg/kg: 98%
[2]; Time Point 4 Hours
  Percent Control, 0.3 mg/kg (average): 11.5%
  inhibition at 0.3 mg/kg: 88.5%
[2]; Time Point 6 Hours
  Percent Control, 0.3 mg/kg (average): 43.7%
  inhibition at 0.3 mg/kg: 56.3%
[2]; Time Point 8 Hours
  Percent Control, 0.3 mg/kg (average): 79.8%
  inhibition at 0.3 mg/kg: 20.2%
[2]; Time Point 16 Hours
  Percent Control, 0.3 mg/kg (average): 98.5%
  inhibition at 0.3 mg/kg: 1.5%
[2]; Time Point 24 Hours
  Percent Control, 0.3 mg/kg (average): 95.8%
  inhibition at 0.3 mg/kg: 4.2%
[3]; 2 h, Dose 0.03 mg/kg
  inhibition at 0.03 mg/kg: -2.7%
[3]; 2 h, Dose 0.1 mg/kg
  inhibition at 0.1 mg/kg: 3.4%
[3]; 2 h
  inhibition at 0.3 mg/kg: 58.4%
  inhibition at 0.81 mg/kg: 98.2%
  inhibition at 1 mg/kg: 96.9%
[3]; 2 h, Dose 0.5 mg/kg
  inhibition at 0.5 mg/kg: 89.9%
[3]; 2 h, Dose 3 mg/kg
  inhibition at 3 mg/kg: 101%
[3]; 4 h
  inhibition at 0.3 mg/kg: 15.7%
  inhibition at 0.81 mg/kg: 87.9%
  inhibition at 1 mg/kg: 91.1%
[3]; 6 h
  inhibition at 0.81 mg/kg: 75.8%
[3]; 8 h
  inhibition at 0.3 mg/kg: 10.4%
  inhibition at 0.81 mg/kg: 51.8%
  inhibition at 1 mg/kg: 62%
[3]; 16 h
  inhibition at 0.3 mg/kg: -2.7%
  inhibition at 0.81 mg/kg: 5.5%
  inhibition at 1 mg/kg: -1.2%
[3]; 24 h
  inhibition at 0.3 mg/kg: -4.4%
  inhibition at 0.81 mg/kg: -4.8%
  inhibition at 1 mg/kg: 3.8%
